Assay results from the Deep4Chem optical property database.

Assay: photoluminescence quantum yield (fraction); solvent given as SMILES

Compound: O=c1oc2c(ccc3cc(O)ccc32)nc1-c1ccccc1
- photoluminescence quantum yield (in c1ccccc1): 0.604

Compound: O=CC1=C(c2ccc(-c3cccs3)s2)CCC1
- photoluminescence quantum yield (in CCO): 0.02

Compound: CN(C)c1ccc(/C=C/c2ccnc(/C=C/c3ccc(N(C)C)cc3)n2)cc1
- photoluminescence quantum yield (in ClCCl): 0.04

Compound: CCCCCCCCC1(CCCCCCCC)c2cc(-c3ccc([Si](C)(C)C)cc3)ccc2-c2ccc(-c3ccc([Si](C)(C)C)cc3)cc21
- photoluminescence quantum yield (in ClC(Cl)Cl): 0.89

Compound: CC1=CC(C)=[N+]2C1=C(c1ccc(I)cc1)c1c(C)cc(C)n1[B-]21Oc2ccc3ccccc3c2-c2c(ccc3ccccc23)O1
- photoluminescence quantum yield (in ClC(Cl)Cl): 0.002

Compound: COc1ccc(/C=C/c2ccncn2)cc1
- photoluminescence quantum yield (in ClCCl): 0.01

Compound: CCCOc1ccc(/C=C/C=C/C=C/c2ccc([N+](=O)[O-])cc2)cc1
- photoluminescence quantum yield (in CC1CCCCC1): 0.25
- photoluminescence quantum yield (in CC#N): 0.011
- photoluminescence quantum yield (in Cc1ccccc1): 0.54
- photoluminescence quantum yield (in ClCCl): 0.06

Compound: CCOC(=O)C(C(=O)OCC)C1=[N+]2C(=C(c3ccc(C)cc3)c3ccc(C(C(=O)OCC)C(=O)OCC)n3[B-]2(F)F)C=C1
- photoluminescence quantum yield (in C1CCCCC1): 0.62
- photoluminescence quantum yield (in C1CCOC1): 0.46
- photoluminescence quantum yield (in CCOC(C)=O): 0.38
- photoluminescence quantum yield (in CO): 0.35
- photoluminescence quantum yield (in Cc1ccccc1): 0.89
- photoluminescence quantum yield (in ClC(Cl)Cl): 0.59

Compound: CCCCCCOc1cc(/C=C/c2cc(OCCCCCC)c(/C=C/c3cc(OCCCCCC)c(C=C(C#N)C#N)cc3OCCCCCC)cc2OCCCCCC)c(OCCCCCC)cc1C=C(C#N)C#N
- photoluminescence quantum yield (in ClCCl): 0.13

Compound: c1ccc2c(c1)c1ccccc1n2-c1ccc(-c2ccc(-c3ccc(-n4c5ccccc5c5ccccc54)nc3-n3c4ccccc4c4ccccc43)nn2)c(-n2c3ccccc3c3ccccc32)n1
- photoluminescence quantum yield (in Cc1ccccc1): 0.36

Compound: CCOC(=O)C1=CN(Cc2ccccc2)C=C(C(=O)OCC)C1
- photoluminescence quantum yield (in C1CCOC1): 0.31
- photoluminescence quantum yield (in CO): 0.24

Compound: CCN(CC)c1ccc2c(-c3ccc(S(=O)(=O)O)cc3S(=O)(=O)[O-])c3ccc(=[N+](CC)CC)cc-3oc2c1
- photoluminescence quantum yield (in CC#N): 0.58
- photoluminescence quantum yield (in CCO): 0.66
- photoluminescence quantum yield (in CN(C)C=O): 0.54
- photoluminescence quantum yield (in O): 0.36

Compound: CN(C)c1ccc(/C=C/c2cnccn2)cc1
- photoluminescence quantum yield (in ClCCl): 0.17

Compound: F[B-]1(F)OC(c2ccccc2)=Cc2cc3[n+](c[n+]21)[B-](F)(F)OC(c1ccccc1)=C3
- photoluminescence quantum yield (in ClCCl): 0.55

Compound: CCCCCCN(CCCCCC)c1ccc(C#Cc2c(F)c(F)c(F)c(F)c2F)cc1
- photoluminescence quantum yield (in CO): 0.0014
- photoluminescence quantum yield (in ClCCl): 0.026

Compound: COc1ccc(OC)cc1
- photoluminescence quantum yield (in C1CCCCC1): 0.22

Compound: CCNc1ccc2c(C(F)(F)F)cc(=O)oc2c1
- photoluminescence quantum yield (in C1CCC2CCCCC2C1): 0.72
- photoluminescence quantum yield (in C1CCCCC1): 0.74
- photoluminescence quantum yield (in CC1CCCCC1): 0.77
- photoluminescence quantum yield (in CC#N): 0.56
- photoluminescence quantum yield (in CC(C)=O): 0.53
- photoluminescence quantum yield (in CC(C)O): 0.54
- photoluminescence quantum yield (in CCC(C)CC): 0.75
- photoluminescence quantum yield (in CCCC(C)C): 0.77
- photoluminescence quantum yield (in CCCCCC): 0.76
- photoluminescence quantum yield (in CCCCCCO): 0.54
- photoluminescence quantum yield (in CCCCO): 0.53
- photoluminescence quantum yield (in CCO): 0.47
- photoluminescence quantum yield (in CCOC(C)=O): 0.61
- photoluminescence quantum yield (in CO): 0.46

Compound: C1=Cc2ccccc2C(=Cc2ccc(C=C3c4ccccc4-c4ccccc43)cc2)c2ccccc21
- photoluminescence quantum yield (in C1CCOC1): 4e-05

Compound: Cc1ccc(C2=C3C=CC(C#Cc4ccccc4)=[N+]3[B-](F)(F)n3c(C#Cc4ccccc4)ccc32)cc1
- photoluminescence quantum yield (in C1CCCCC1): 1
- photoluminescence quantum yield (in C1CCOC1): 0.99
- photoluminescence quantum yield (in C1COCCO1): 1
- photoluminescence quantum yield (in CCOC(C)=O): 1
- photoluminescence quantum yield (in CO): 1
- photoluminescence quantum yield (in Cc1ccccc1): 1
- photoluminescence quantum yield (in ClC(Cl)Cl): 1
- photoluminescence quantum yield (in ClCCl): 1

Compound: C(=C\c1c2ccccc2cc2ccccc12)/c1cnc2ccccc2c1
- photoluminescence quantum yield (in CC1CCCCC1): 0.7
- photoluminescence quantum yield (in CC#N): 0.58

Compound: CCCCNc1nn(-c2ccc(OC)cc2)nc1C#N
- photoluminescence quantum yield (in CC#N): 0.918

Compound: CC(C)(C)c1ccc(C(C)(C)C)c(N2C(=O)c3cccc4c(-c5ccc(-c6ccc([N+](=O)[O-])cc6)s5)ccc(c34)C2=O)c1
- photoluminescence quantum yield (in CO): 0.03
- photoluminescence quantum yield (in CS(C)=O): 0.17
- photoluminescence quantum yield (in Cc1ccccc1): 0.07

Compound: O=CC12N=N[C@](C=O)(C3C4CCC(C4)C31)C1[C@@H]3CC[C@@H](C3)[C@H]12 (some centres undefined)
- photoluminescence quantum yield (in CC#N): 0.049
